In ChEMBL document CHEMBL1150583, “New isoflavone and triterpene glycosides from soybeans” (2002):
≈ marks a conversion by molar mass, not a printed value.

Legend:
Type in all cases: functional
[1] = Cytotoxicity against human Hs 740.T cells after 6 days by MTT assay; conditions: 144 h, read-out: ED50 (the source's name)
[2] = Cytotoxicity against human Hs 746T cells after 6 days by MTT assay; conditions: Hs746T, 144 h, read-out: ED50 (the source's name)
[3] = Cytotoxicity against human Hs 578T cells after 6 days by MTT assay; conditions: 144 h, read-out: ED50 (the source's name)
[4] = Cytotoxicity against human Hs 742.T cells after 6 days by MTT assay; conditions: 144 h, read-out: ED50 (the source's name)
DU-145 = test: Cytotoxicity against human DU145 cells after 6 days by MTT assay; conditions: DU-145, 144 h, read-out: ED50 (the source's name)
[5] = Cytotoxicity against human LNCaP-FGC cells after 6 days by MTT assay; conditions: LNCaP-Clone-FGC, 144 h, read-out: ED50 (the source's name)

SMILES | EC50 [1] | EC50 [2] | EC50 [3] | EC50 [4] | EC50 (DU-145) | EC50 [5]
CC1(C)C[C@@H](O)[C@]2(C)CC[C@]3(C)C(=CC[C@@H]4[C@@]5(C)CC[C@H](O[C@@H]6O[C@H](C(=O)O)[C@@H](O)[C@H](O)[C@H]6O)[C@@](C)(CO)[C@@H]5CC[C@]43C)[C@@H]2C1 [3-O-[BETA-D-GLUCURONOPYRANOSYL]SOYASAPOGENOL B] | 9.61 µg/mL (≈ 15.1 µM) | 9.59 µg/mL (≈ 15.1 µM) | 8.77 µg/mL (≈ 13.8 µM) | 28.7 µg/mL (≈ 45.2 µM) | 9.13 µg/mL (≈ 14.4 µM) | 37.3 µg/mL (≈ 58.7 µM)
O=C1c2ccc(O[C@@H]3O[C@H](CO)[C@@H](O)[C@H](O)[C@H]3O)cc2OCC1c1ccc(O)cc1 (stereo partly drawn) [DIHYDRODAIDZIN] | 17.4 µg/mL (≈ 41.5 µM) | 14.9 µg/mL (≈ 35.7 µM) | 28.2 µg/mL (≈ 67.5 µM) | 33.6 µg/mL (≈ 80.2 µM) | 9.16 µg/mL (≈ 21.9 µM) | 32.5 µg/mL (≈ 77.6 µM)
O=c1c(-c2ccc(O)cc2)coc2cc(O)cc(O)c12 [GENISTEIN] | 4.38 µg/mL (≈ 16.2 µM) | 5.82 µg/mL (≈ 21.5 µM) | 3.5 µg/mL (≈ 13 µM) | 14.9 µg/mL (≈ 55.1 µM) | 2.39 µg/mL (≈ 8.84 µM) | 25.4 µg/mL (≈ 94.2 µM)
O=C1c2c(O)cc(O[C@@H]3O[C@H](CO)[C@@H](O)[C@H](O)[C@H]3O)cc2OCC1c1ccc(O)cc1 (stereo partly drawn) [DIHYDROGENISTIN] | 15.1 µg/mL (≈ 34.8 µM) | 12.2 µg/mL (≈ 28.2 µM) | 15.4 µg/mL (≈ 35.4 µM) | 30.8 µg/mL (≈ 70.9 µM) | 10.2 µg/mL (≈ 23.6 µM) | 41.6 µg/mL (≈ 95.7 µM)
C[C@@H]1O[C@@H](O[C@H]2[C@H](O[C@H]3[C@H](O[C@H]4CC[C@@]5(C)[C@@H](CC[C@]6(C)[C@@H]5CC=C5[C@@H]7CC(C)(C)C[C@@H](O[C@@H]8O[C@H](CO)[C@@H](O)[C@H](O)[C@H]8O[C@@H]8O[C@@H](C)[C@H](O)[C@@H](O)[C@H]8O)[C@]7(C)CC[C@]56C)[C@]4(C)CO)O[C@H](C(=O)O)[C@@H](O)[C@@H]3O)O[C@H](CO)[C@H](O)[C@@H]2O)[C@H](O)[C@H](O)[C@H]1O | 4.1 µg/mL (≈ 3.28 µM) | 3.94 µg/mL (≈ 3.15 µM) | 2.12 µg/mL (≈ 1.69 µM) | 14.6 µg/mL (≈ 11.7 µM) | 3.25 µg/mL (≈ 2.6 µM) | 24.1 µg/mL (≈ 19.3 µM)
C[C@@H]1O[C@@H](O[C@H]2[C@H](O[C@@H]3CC(C)(C)C[C@H]4C5=CC[C@@H]6[C@@]7(C)CC[C@H](O[C@@H]8O[C@H](C(=O)O)[C@@H](O)[C@H](O)[C@H]8O[C@@H]8O[C@H](CO)[C@H](O)[C@H](O)[C@H]8O[C@@H]8O[C@@H](C)[C@H](O)[C@@H](O)[C@H]8O)[C@@](C)(CO)[C@@H]7CC[C@@]6(C)[C@]5(C)CC[C@@]34C)OC[C@H](O)[C@@H]2O)[C@H](O)[C@H](O)[C@H]1O | 3.53 µg/mL (≈ 2.89 µM) | 2.47 µg/mL (≈ 2.02 µM) | 2.39 µg/mL (≈ 1.96 µM) | 17.5 µg/mL (≈ 14.3 µM) | 3.12 µg/mL (≈ 2.55 µM) | 27.5 µg/mL (≈ 22.5 µM)
CC1(C)C[C@@H](O)[C@]2(C)CC[C@]3(C)C(=CC[C@@H]4[C@@]5(C)CC[C@H](O[C@@H]6O[C@H](C(=O)O)[C@@H](O)[C@H](O)[C@H]6O[C@@H]6O[C@H](CO)[C@H](O)[C@H](O)[C@H]6O[C@@H]6O[C@H](CO)[C@@H](O)[C@H](O)[C@H]6O)[C@@](C)(CO)[C@@H]5CC[C@]43C)[C@@H]2C1 [3-O-[BETA-DGLUCOPYRANOSYL-(1->2)-BETA-D-GALACTOPYRANOSYL(1->2)-BETA-DGLUCURONOPYRANOSYL]SOYASAPOGENOL B] | 8.97 µg/mL (≈ 9.35 µM) | 7.36 µg/mL (≈ 7.67 µM) | 9.87 µg/mL (≈ 10.3 µM) | 31.6 µg/mL (≈ 32.9 µM) | 5.75 µg/mL (≈ 5.99 µM) | 40.7 µg/mL (≈ 42.4 µM)
COc1ccc(-c2coc3cc(O[C@@H]4O[C@H](COC(C)=O)[C@@H](O)[C@H](O)[C@H]4OC(C)=O)ccc3c2=O)cc1 | 7.61 µg/mL (≈ 14.8 µM) | 8.89 µg/mL (≈ 17.3 µM) | 5.44 µg/mL (≈ 10.6 µM) | 25.5 µg/mL (≈ 49.6 µM) | 4.18 µg/mL (≈ 8.12 µM) | 22.1 µg/mL (≈ 43 µM)
